In brackets after ≈: the same amount, converted by molar mass. Read-outs that look alike come from different tables or passages of the source.
Experiments:
P. aeruginosa PAO1 [1] = test system: P. aeruginosa PAO1; parameters: method as in PMID 31038945; details: planktonic growth, cited from earlier work
PA_1081725 = details: isolate purchased from JMI Laboratories, no MIC method given; cited from earlier work
PA_1076058 = details: isolate purchased from JMI Laboratories, no MIC method given; cited from earlier work
BfrB [2] = target: T1, BfrB (Pseudomonas aeruginosa, UniProt Q9HY79); experiment: Dissociation constant (Kd) for BfrB by fluorescence polarization; format: binding
T1 sequence (Q9HY79 whole entry): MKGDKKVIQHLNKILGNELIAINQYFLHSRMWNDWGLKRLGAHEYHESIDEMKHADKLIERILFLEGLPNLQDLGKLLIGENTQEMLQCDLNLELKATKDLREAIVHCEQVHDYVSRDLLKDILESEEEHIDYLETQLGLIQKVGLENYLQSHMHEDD
Experimental: Dissociation constants for the interaction between BfrB and 3-aminoisoindoline-1,3-dione derivatives (Table 1, Figure S1) were measured in vitro with a fluorescence polarization method based on the intrinsic fluorescence of the isoindoline-1,3-dione moiety, as described previously.[25]
25 (A) and KM-5-66 (B) for BfrB, evaluated by fluorescence polarization, as described previously1.
Values were obtained in 100 mM potassium phosphate buffer (pH 7.6) containing 1 mM TCEP and
0.5% DMSO. The initial concentrations of KM-5-25 and KM-5-66 were 5 µM. The Kd values are the
average and standard deviation from three independent measurements. […]

P. aeruginosa PAO1 [3] = experiment: Half maximal inhibitory concentration (IC50) on planktonic growth, CFU/mL enumeration; format: cell-based, Pseudomonas aeruginosa; details: 24 h, 35 °C, 2% DMSO, this work
Experimental: Chemicals were purchased from Fisher Scientific unless otherwise stated. P. aeruginosa PAO1 was obtained from the University of Washington Genome center.[81] The PAO1 strain expressing enhanced yellow fluorescent protein (EYFP) was prepared previously.[26] Clinical isolates of P. aeruginosa were purchased from JMI Laboratories (North Liberty, IA, USA). […] Starter cultures were grown from a single colony at 37 °C and shaking at 220 rpm for 14 h in 5 mL PI media supplemented with 10 μM Fe. Pellicle biofilms were cultured for 48 h at 30 °C in PI media supplemented with 20 μM Fe. Surface-attached biofilms were cultured in AB minimal media[82] supplemented with trace metals [0.15 μM (NH4)2MoO4, 3 μM CuSO4, 2 μM Co(NO3)2, 9.4 μM Na2B4O7, and 7.6 μM ZnSO4], 3 mM glucose and 15 μM Fe. Iron supplementation was carried out by addition of a small volume of filter-sterilized 10 mM (NH4)2Fe(SO4)2 (pH ∼ 2.0) solution. […]; IC50 values (Table 1, Figure S1) were determined as reported previously[25] with small modifications. In brief: precultures of P. aeruginosa PAO1 (5 mL) were grown in LB media for 13 h at 37 °C and 220 rpm in 50 mL conical tubes (VWR International, PA). The cells were centrifuged for 5 min at 4000 rpm and 4 °C, washed two times and then diluted in buffer (100 mM KH2PO4 and 15 mM (NH4)2SO4) to an optical density at 600 nm (OD600) of 0.1. A small volume of compound stock solution (10 mM) was transferred to a microcentrifuge tube, initially diluted with DMSO to 20 μL, and then diluted to 1 mL with preculture cell suspension in defined media with OD600 = 0.0001, so the final DMSO concentration is 2%. The resultant cell suspension (200 μL) was transferred to a clear-bottom polystyrene 96-well plate (VWR) covered with a lid and incubated at 35 °C and 205 cpm for 24 h in a Synergy H1 microplate reader (Biotek Instruments Inc., Vermont). The cell cultures were serially diluted and then plated on PI Agar (PIA; BD biosciences) plates for enumeration of viable cells (CFU/mL). The % growth was calculated from the ratio CFU/mL(treated)/CFU/mL(untreated control). To calculate the IC50 values, the % growth was plotted as a function of compound concentration, expressed as log[compound] (μM), and fitted to the 4-parameter logistic model describing the sigmoid-shaped response pattern (eq 1),[84] where b is the slope factor, max is the upper asymptote (plateau), and min is the lower asymptote. Values are the average and standard deviation from three independent experiments. [drawing 1] 1

[4] = test system: EYFP-expressing P. aeruginosa PAO1 biofilms; experiment: Flow cell biofilm assay, CLSM imaging and COMSTAT viable biomass; format: cell-based, Pseudomonas aeruginosa; details: 3-day old flow cell biofilms, 24 h treatment, 25× MIC
Description: The treated biofilms were counterstained with the cell impermeable fluorescent nucleic acid dye Sytox Red and then imaged with the aid of confocal laser scanning microscopy (CLSM).
Image stacks were acquired with a z-step size of 0.3 μm at randomly chosen positions.

[5] = test system: Pellicles of P. aeruginosa PAO1 expressing EYFP; experiment: Pellicle biofilm assay, CLSM imaging and COMSTAT viable biomass; format: cell-based, Pseudomonas aeruginosa; details: 2-day old pellicles, 24 h
Experimental: Pellicle biofilms of EYFP-expressing P. aeruginosa PAO1 or clinical isolates were grown in PI media supplemented with 20 μM Fe. Starter cultures were diluted to OD600 = 0.001 in 4 mL media, placed in 35 × 10 mm Petri dishes and incubated statically at 30 °C for 48 h. The pellicles were transferred onto circular (1.5 cm diameter) glass coverslips by gently allowing the surface of a coverslip to contact a pellicle. The pellicle-adhered coverslip was washed in PBS and then deposited on top of 1.5 mL AB challenge media contained in a well of a 12-well microplate, with the pellicle exposed to the media. […] The coverslip-adhered pellicles were exposed to challenge media at 30 °C for 24 h, changing the challenge media every 12 h by transferring the pellicle-adhered coverslip to a new plate containing prewarmed challenge media.
Excess fluorescent dye was washed with PBS, the coverslip was mounted on a glass slide using 5 μL SlowFade (Invitrogen Life Technologies) and the edges sealed with fingernail polish. CLSM image stacks (z-step size of 0.3 μm) were acquired with the aid of a Leica TCS SP8 microscope, as described above. Quantitative analysis was performed by determination of pellicle biomass using COMSTAT[55] and the Otsu method of automatic thresholding.[86]

[6] = test system: EYFP-expressing P. aeruginosa PAO1 pellicles; experiment: Viable cells (CFU/mL) dispersed from pellicle biofilms; format: cell-based, Pseudomonas aeruginosa; details: 2-day old pellicles, 24 h
Experimental: Pellicle biofilms were grown as described above. Planktonic and loosely attached cells were washed (3 times) by immersing the coverslip-adhered pellicles (biofilm facing up) into a well of a 12-well plate containing 3 mL PBS, and incubating (5 min) with gentle rocking. To remove the pellicle from the coverslip, break the extracellular matrix and release cells from the biofilm, the coverslip-adhered pellicle was placed in a 50 mL conical tube containing a 2 mL suspension of zirconia beads (0.1 mm diameter, BioSpec Products), 10 mL PBS, 0.2 μg/mL alginate lyase and 0.2 μg/mL DNase. The resultant mixture was incubated at room temperature for 3 min, followed by vigorous vortexing for 4 min. After sedimentation of the zirconia beads, a 100 μL aliquot was used for serial dilution and plating on PIA plates for subsequent enumeration of viable cells (CFU/mL).

P. aeruginosa = test system: P. aeruginosa; parameters: method as in PMID 11420333; details: cited from earlier work
Aqueous solubility = format: physicochemical; details: for solubility: PBS buffer, read-out: solubility in PBS buffer; for aqueous solubility (in words): aqueous solution
BfrB [7] = target: T1, BfrB; details: Bfd binding sites on BfrB equivalent and independent; cited from earlier work
[8] = Pseudomonas aeruginosa, PAO1, defined media, read-out: IC50

For `Nc1cccc2c1C(=O)NC2=O` [Analog 8, 4-aminoisoindoline-1,3-dione], the IC50 (P. aeruginosa PAO1 [1]) is listed as “not active”.

For `CC(C)(O/N=C(\C(=O)N[C@@H]1C(=O)N2C(C(=O)[O-])=C(C[n+]3ccccc3)CS[C@H]12)c1csc(N)n1)C(=O)O` [Ceftazidime], the MIC (PA_1081725) is listed as over 32 µg/mL and the MIC (PA_1076058) is listed as over 32 µg/mL.

For `O=C1NC(=O)c2c(NCc3cccc(O)c3)cccc21` [BN-XIV-53], the Kd (BfrB [2]) was 21 ± 3 µM and the IC50 (P. aeruginosa PAO1 [3]; defined media) was “not active at 120 μM”.

Work on `O=C1NC(=O)c2c(NCc3cc(F)ccc3O)cccc21` [JAG-5-7, 4-((5-Fluoro-2-hydroxybenzyl)amino)isoindoline-1,3-dione] yielded a Kd (BfrB [2]) of 7 ± 2 µM and an IC50 (P. aeruginosa PAO1 [3]; [8]) of 128 ± 26 µM.

For colistin, the “% survival (viable biomass, COMSTAT)” value [4] was about 20%, the “fluorescence signal from viable cells expressing EYFP” value ([5]; 50× MIC) was “undetectable” and the “susceptibility of pellicle biofilms (CLSM)” value ([5]; concentrations above 10× MIC) was “susceptible”. For the same molecule, the “% cell survival, CFU/mL(after treatment)/CFU/mL(pretreatment)” value (“% cell survival” below) ([6]; 25× MIC) was about 10%, the “% cell survival” value ([6]; 50× MIC) was about 1% and the MIC (P. aeruginosa; reported MIC converted to μM) was 0.79 µM. For the same molecule, the MIC (P. aeruginosa; reported MIC) was 1 µg/mL.

With `NC[C@H]1O[C@H](O[C@H]2[C@H](O)[C@@H](O[C@H]3O[C@H](CO)[C@@H](O)[C@H](N)[C@H]3O)[C@H](N)C[C@@H]2N)[C@H](N)C[C@@H]1O` [tobramycin] the “% survival (viable biomass, COMSTAT)” value [4] was about 70%, the “tolerance of pellicle biofilms (CLSM)” value ([5]; 25× and 50× the MIC) was “tolerant” and the “% cell survival” value ([6]; 25× MIC) was about 70%. For the same molecule, the “% cell survival” value ([6]; 50× MIC) was about 70%, the MIC (PA_1081725) was 16 µg/mL (≈ 34.2 µM) and the MIC (PA_1076058) was over 16 µg/mL. For the same molecule, the MIC (P. aeruginosa; reported MIC converted to μM) was 1.07 µM and the MIC (P. aeruginosa; reported MIC) was 0.5 µg/mL.

In the case of `C[C@H]1c2cccc(O)c2C(=O)C2=C(O)[C@]3(O)C(=O)C(C(N)=O)=C(O)[C@@H](N(C)C)[C@@H]3[C@@H](O)[C@@H]21` [Doxycycline], the MIC (PA_1081725) is listed as 4 µg/mL (≈ 9 µM) and the MIC (PA_1076058) is listed as over 8 µg/mL.

In the case of `O=C(O)c1cn(C2CC2)c2cc(N3CCNCC3)c(F)cc2c1=O` [ciprofloxacin], the MIC (PA_1081725) is listed as 16 µg/mL (≈ 48.3 µM), the MIC (PA_1076058) is listed as over 16 µg/mL and the MIC (P. aeruginosa; reported MIC converted to μM) is listed as 0.75 µM. The MIC (P. aeruginosa; reported MIC) was 0.25 µg/mL.

In the case of `O=C1NC(=O)c2c(NCCCc3cccc(O)c3)cccc21` [Analog 16], the IC50 (P. aeruginosa PAO1 [1]; read-out: IC50) is listed as 121 ± 4 µM.

Molecule `O=C1NC(=O)c2c(NCc3cc(O)cc(Cl)c3)cccc21` [KM-5-50, 4-((5-Chloro-3-hydroxybenzyl)amino)isoindoline-1,3-dione] has a Kd (BfrB [2]) of 11 ± 2 µM and an IC50 (P. aeruginosa PAO1 [3]; [8]) of 82 ± 16 µM.

In the case of `C[C@H]1[C@H](NC(=O)/C(=N\OC(C)(C)C(=O)O)c2csc(N)n2)C(=O)N1S(=O)(=O)O` [Aztreonam], the MIC (PA_1081725) is listed as over 16 µg/mL and the MIC (PA_1076058) is listed as 16 µg/mL (≈ 36.7 µM).

For `O=C1NC(=O)c2c(NCc3c(O)cccc3Cl)cccc21` [KM-5-29, 4-((6-Chloro-2-hydroxybenzyl)amino)isoindoline-1,3-dione], the Kd (BfrB [2]) was 6 ± 0.5 µM, the solubility (Aqueous solubility) was under 30 µM and the “aqueous solubility (in words)” value (Aqueous solubility) was “poorly soluble in aqueous solution”.

For `O=C1NC(=O)c2c(NCCCc3cc(F)ccc3O)cccc21` [JAG-5-6, 4-((3-(5-fluoro-2-hydroxyphenyl)propyl)amino)isoindoline-1,3-dione], the Kd (BfrB [2]) was 0.43 ± 0.07 µM and the IC50 (P. aeruginosa PAO1 [3]; [8]) was 54 ± 9 µM.

Molecule `O=C1NC(=O)c2c(NCCCc3ccccc3O)cccc21` [KM-5-28] has a Kd (BfrB [2]) of 1.4 ± 0.2 µM and an IC50 (P. aeruginosa PAO1 [3]; [8]) of 96 ± 1 µM.

In the case of `C[C@@H](O)[C@H]1C(=O)N2C(C(=O)O)=C(S[C@@H]3CN[C@H](C(=O)N(C)C)C3)[C@H](C)[C@H]12` [Meropenem], the MIC (PA_1081725) is given as 32 µg/mL (≈ 83.4 µM) and the MIC (PA_1076058) is given as 4 µg/mL (≈ 10.4 µM).

In the case of `CNC(C)C1CCC(N)C(OC2C(N)CC(N)C(OC3OCC(C)(O)C(NC)C3O)C2O)O1` (stereo not shown) [Gentamicin], the MIC (PA_1081725) is given as 4 µg/mL (≈ 8.38 µM) and the MIC (PA_1076058) is given as over 16 µg/mL.

For `O=C1NC(=O)c2c(NCCCc3cc(O)cc(O)c3)cccc21` [KM-5-57], the Kd (BfrB [2]) was 2.5 ± 0.4 µM and the IC50 (P. aeruginosa PAO1 [3]; defined media) was “not active at 200 μM”.

Molecule `O=C1NC(=O)c2c(NCc3cccc(Cl)c3O)cccc21` [KM-5-30, 4-((3-Chloro-2-hydroxybenzyl)amino)isoindoline-1,3-dione] has a Kd (BfrB [2]) of 6 ± 1 µM and an IC50 (P. aeruginosa PAO1 [3]; [8]) of 156 ± 30 µM.

For `O=C1NC(=O)c2c(NCCCc3cc(Cl)ccc3O)cccc21` [KM-5-54], the Kd (BfrB [2]) was 0.22 ± 0.04 µM, the solubility (Aqueous solubility) was under 30 µM and the “aqueous solubility (in words)” value (Aqueous solubility) was “poor water solubility”.

In the case of `O=C1NC(=O)c2c(NCc3ccccc3O)cccc21` [Analog 11], the IC50 (P. aeruginosa PAO1 [1]; read-out: IC50) is listed as 258 ± 23 µM.

For `NCC[C@H](O)C(=O)N[C@@H]1C[C@H](N)[C@@H](O[C@H]2O[C@H](CN)[C@@H](O)[C@H](O)[C@H]2O)[C@H](O)[C@H]1O[C@H]1O[C@H](CO)[C@@H](O)[C@H](N)[C@H]1O` [Amikacin], the MIC (PA_1081725) is given as 16 µg/mL (≈ 27.3 µM) and the MIC (PA_1076058) is given as 4 µg/mL (≈ 6.83 µM).

B1: Bfd: bacterioferritin-associated ferredoxin, a [2Fe-2S] protein that binds BfrB to mobilize stored iron (protein, UniProt Q9HY80 1-73, looked up)
Bacterioferritin-associated …: MYVCLCQGVTDNQIRDAIYEGCCSYREVREATGVGTQCGKCACLAKQVVRETLNDLQSAQPVPAFGTTAFVAA
For B1, the Kd (BfrB [7]) is listed as 3 µM.

Reference: PMC7802073, “Small Molecule Inhibitors of the Bacterioferritin (BfrB)–Ferredoxin (Bfd) Complex Kill Biofilm-Embedded Pseudomonas aeruginosa Cells” (ACS Infectious Diseases, 2020)
